Patent US9951001B2 (Acorda Therapeutics, Inc., priority 2008, dated 2018)
Converted amounts (≈) assume the structure as drawn. Structures can show the parent of a compound that is named as a salt. Where two headings read alike, the source gives them in different places.

Columns and labels:
[1] = tested on: C57BL6 mice; experiment: Acute acetaminophen-induced hepatotoxicity in mice (plasma ALT and AST)
Experimental: Hepatotoxicity was evaluated by measuring standard plasma enzymatic markers (Alanine transaminase (ALT) and Aspartate transaminase (AST)) of liver damage.

[2] = physchem; details: for solubility: water, Solubility in water at room temperature
Experimental: To a stirred colorless solution of (S)-4-acetamidophenyl 2-(tert-butoxycarbonylamino)-4-(methylthio)butanoate (0.5 g, 1.3 mmol) in dioxane (10 mL) was added 40 mL of HCl in dioxane (4M).

[3] = cited from earlier work

Row | melting point [°C] | solubility [2] [mg/mL] | Structure (SMILES) | other results
1 | 230 to 237 |  | CC(=O)Nc1ccc(OC(=O)C(N)CSSCC(N)C(=O)O)cc1.Cl.Cl (centres unmarked) | 
2 | 225 to 228 |  | CSCC[C@H](N)C(=O)Oc1ccc(NC(C)=O)cc1 (as salt: HCl) [Compound (II-A), (S)-4-acetamidophenyl 2-amino-4-(methylthio)butanoate] | 
3 | > 300 |  | CC(=O)Nc1ccc(OC(=O)C(N)CSSCC(N)C(=O)Oc2ccc(NC(C)=O)cc2)cc1 (centres unmarked) (as salt: trifluoroacetate) [Example 4, bis(4-acetamidophenyl)3,3′-disulfanediylbis(2-aminopropanoate)di(trifluoroacetate)] | 
4 |  | ~14.3 (≈ 94.6 mM) | CC(=O)Nc1ccc(O)cc1 [Acetaminophen, N-(4-hydroxyphenyl)acetamide] | Treated mice with elevated ALT levels ([1]; mouse, in vivo): 83%; Treated mice with increased AST levels ([1]; mouse, in vivo): all
5 |  | 500 (≈ 1770 mM) | CSCC[C@H](N)C(=O)Oc1ccc(NC(C)=O)cc1 [Compound (II-A), (S)-4-acetamidophenyl 2-amino-4-(methylthio)butanoate] | 
6 |  |  | CC(=O)Nc1ccc(OC(=O)C(N)CSSCC(NC(C)=O)C(=O)O)cc1 (centres unmarked) [Compound II-D sodium salt, 2-acetamido-3-((3-(4-acetamidophenoxy)-2-amino-3-oxopropyl)disulfanyl)propanoic acid] | Solubility in water at room temperature [2]: 52 mg/mL
7 | 95 to 99 |  | CC(=O)Nc1ccc(OC(=O)C(CSSCC(NC(C)=O)C(=O)O)NC(C)=O)cc1 (centres unmarked) [Example 2, 2-acetamido-3-((2-acetamido-3-(4-acetamidophenoxy)-3-oxopropyl)disulfanyl)propanoic acid] | 
8 |  | 47 (≈ 113 mM) | CC(=O)Nc1ccc(OC(=O)C(N)CSSCC(NC(C)=O)C(=O)O)cc1 (centres unmarked) [II-D, 2-acetamido-3-((3-(4-acetamidophenoxy)-2-amino-3-oxopropyl)disulfanyl)propanoic acid] | 
9 |  |  | O=C1N[C@H](C(=O)O)CS1 [L-2-oxothiazolidine-4-carboxylate] | GSH tissue levels ([3]; administered 30 minutes post-acetaminophen administration): 6.1 μmol/g of tissue; GSH tissue levels ([3]; administered 120 minutes post-acetaminophen administration): 5.3 μmol/g of tissue
10 |  |  | CSCC[C@H](N)C(=O)O [l-methionine] | AST and ALT increases in acetaminophen-treated animals ([1]; co-administration of equimolar doses of l-methionine and acetaminophen): significantly reduced; Serum AST and ALT levels ([1]; oral l-methionine alone (167 mg/kg)): did not affect
